# Numbers after ± are expanded uncertainties.
# Key:
# [1] = mn = molality of the nth substance listed, in mol/kg; details: 101 kPa, Liquid; for viscosity: Capillary tube (Ostwald / Ubbelohde) method
# [2] = refractive index (Na D-line) (dimensionless); details: 298.15 K; 101.33 kPa; Liquid; Standard Abbe refractometry
# [3] = 298.15 K; 101.33 kPa; Liquid; Pycnometric method
# [4] = 275.15 K, Pycnometric method, m2 = 0
# [5] = 283.15 K, Buoyancy - hydrostatic balance with magnetic suspension - one sinker, m2 = 0
structure (smiles),measurement,setting,value
"CCOCCOCCO [3,6-dioxa-1-octanol] + O",viscosity,"[1]; 275.15 K, m1 = 0.0108",1.008 ± 0.041 mPa·s
same,viscosity,"[1]; 275.15 K, m1 = 0.0203",1.015 ± 0.041 mPa·s
same,viscosity,"[1]; 275.15 K, m1 = 0.0306",1.022 ± 0.041 mPa·s
same,viscosity,"[1]; 275.15 K, m1 = 0.0409",1.029 ± 0.042 mPa·s
same,viscosity,"[1]; 275.15 K, m1 = 0.0504",1.035 ± 0.042 mPa·s
same,viscosity,"[1]; 275.15 K, m1 = 0.0625",1.043 ± 0.042 mPa·s
same,viscosity,"[1]; 275.15 K, m1 = 0.0707",1.048 ± 0.042 mPa·s
same,viscosity,"[1]; 275.15 K, m1 = 0.0809",1.053 ± 0.043 mPa·s
same,viscosity,"[1]; 275.15 K, m1 = 0.0904",1.058 ± 0.043 mPa·s
same,viscosity,"[1]; 275.15 K, m1 = 0.1025",1.047 ± 0.042 mPa·s
same,mass density,"[1]; 275.15 K, Pycnometric method, m1 = 0.0108",1000.05 ± 0.33 kg/m3
same,mass density,"[1]; 275.15 K, Pycnometric method, m1 = 0.0203",1000.15 ± 0.33 kg/m3
same,mass density,"[1]; 275.15 K, Pycnometric method, m1 = 0.0306",1000.23 ± 0.33 kg/m3
same,mass density,"[1]; 275.15 K, Pycnometric method, m1 = 0.0409",1000.34 ± 0.33 kg/m3
same,mass density,"[1]; 275.15 K, Pycnometric method, m1 = 0.0504",1000.42 ± 0.33 kg/m3
same,mass density,"[1]; 275.15 K, Pycnometric method, m1 = 0.0625",1000.52 ± 0.33 kg/m3
same,mass density,"[1]; 275.15 K, Pycnometric method, m1 = 0.0707",1000.62 ± 0.33 kg/m3
same,mass density,"[1]; 275.15 K, Pycnometric method, m1 = 0.0809",1000.69 ± 0.33 kg/m3
same,mass density,"[1]; 275.15 K, Pycnometric method, m1 = 0.0904",1000.79 ± 0.33 kg/m3
same,mass density,"[1]; 275.15 K, Pycnometric method, m1 = 0.1025",1000.86 ± 0.33 kg/m3
same,mass density,"[1]; 283.15 K, Buoyancy - hydrostatic balance with magnetic suspension - one sinker, m1 = 0.0092",999.77 ± 0.23 kg/m3
same,mass density,"[1]; 283.15 K, Buoyancy - hydrostatic balance with magnetic suspension - one sinker, m1 = 0.019",999.8 ± 0.23 kg/m3
same,mass density,"[1]; 283.15 K, Buoyancy - hydrostatic balance with magnetic suspension - one sinker, m1 = 0.0291",999.96 ± 0.23 kg/m3
same,mass density,"[1]; 283.15 K, Buoyancy - hydrostatic balance with magnetic suspension - one sinker, m1 = 0.0416",1000.08 ± 0.23 kg/m3
same,mass density,"[1]; 283.15 K, Buoyancy - hydrostatic balance with magnetic suspension - one sinker, m1 = 0.0482",1000.09 ± 0.23 kg/m3
same,mass density,"[1]; 283.15 K, Buoyancy - hydrostatic balance with magnetic suspension - one sinker, m1 = 0.062",1000.22 ± 0.23 kg/m3
same,mass density,"[1]; 283.15 K, Buoyancy - hydrostatic balance with magnetic suspension - one sinker, m1 = 0.0687",1000.23 ± 0.23 kg/m3
same,mass density,"[1]; 283.15 K, Buoyancy - hydrostatic balance with magnetic suspension - one sinker, m1 = 0.0796",1000.34 ± 0.23 kg/m3
same,mass density,"[1]; 283.15 K, Buoyancy - hydrostatic balance with magnetic suspension - one sinker, m1 = 0.0904",1000.41 ± 0.23 kg/m3
same,mass density,"[1]; 283.15 K, Buoyancy - hydrostatic balance with magnetic suspension - one sinker, m1 = 0.091",1000.39 ± 0.23 kg/m3
same,mass density,"[1]; 283.15 K, Buoyancy - hydrostatic balance with magnetic suspension - one sinker, m1 = 0.0998",1000.48 ± 0.23 kg/m3
same,mass density,"[1]; 283.15 K, Buoyancy - hydrostatic balance with magnetic suspension - one sinker, m1 = 0.1019",1000.46 ± 0.23 kg/m3
same,viscosity,"[1]; 283.15 K, m1 = 0.0092",1.004 ± 0.041 mPa·s
same,viscosity,"[1]; 283.15 K, m1 = 0.019",1.008 ± 0.041 mPa·s
same,viscosity,"[1]; 283.15 K, m1 = 0.0291",1.013 ± 0.041 mPa·s
same,viscosity,"[1]; 283.15 K, m1 = 0.0416",1.019 ± 0.041 mPa·s
same,viscosity,"[1]; 283.15 K, m1 = 0.0482",1.023 ± 0.041 mPa·s
same,viscosity,"[1]; 283.15 K, m1 = 0.062",1.03 ± 0.042 mPa·s
same,viscosity,"[1]; 283.15 K, m1 = 0.0687",1.034 ± 0.042 mPa·s
same,viscosity,"[1]; 283.15 K, m1 = 0.0796",1.041 ± 0.042 mPa·s
same,viscosity,"[1]; 283.15 K, m1 = 0.0904",1.047 ± 0.042 mPa·s
same,viscosity,"[1]; 283.15 K, m1 = 0.091",1.047 ± 0.042 mPa·s
same,viscosity,"[1]; 283.15 K, m1 = 0.0998",1.053 ± 0.043 mPa·s
same,viscosity,"[1]; 283.15 K, m1 = 0.1019",1.054 ± 0.043 mPa·s
O [water] + CCOCCO,viscosity,"[1]; 275.15 K, m2 = 0",1.674 ± 0.069 mPa·s
same,mass density,[1]; [4],999.94 ± 0.33 kg/m3
same,mass density,[1]; [5],999.7 ± 0.23 kg/m3
same,viscosity,"[1]; 283.15 K, m2 = 0",1.31 ± 0.054 mPa·s
CCOCCO [2-ethoxyethan-1-ol],refractive index,[2],1.4057 ± 0.0008
same,mass density,[3],925.05 ± 1.4 kg/m3
"CCOCCOCCO [3,6-dioxa-1-octanol]",refractive index,[2],1.4253 ± 0.0008
same,mass density,[3],984.045 ± 1.6 kg/m3
O [water] + COCCO,viscosity,"[1]; 275.15 K, m2 = 0",1.674 ± 0.069 mPa·s
same,mass density,[1]; [4],999.94 ± 0.33 kg/m3
same,mass density,[1]; [5],999.7 ± 0.23 kg/m3
same,viscosity,"[1]; 283.15 K, m2 = 0",1.31 ± 0.053 mPa·s
COCCO [2-methoxyethan-1-ol],refractive index,[2],1.4003 ± 0.0008
same,mass density,[3],959.03 ± 1.5 kg/m3
CCOCCO [2-ethoxyethan-1-ol] + O,viscosity,"[1]; 275.15 K, m1 = 0.0102",1.005 ± 0.041 mPa·s
same,viscosity,"[1]; 275.15 K, m1 = 0.0202",1.01 ± 0.041 mPa·s
same,viscosity,"[1]; 275.15 K, m1 = 0.0294",1.015 ± 0.041 mPa·s
same,viscosity,"[1]; 275.15 K, m1 = 0.0459",1.025 ± 0.041 mPa·s
same,viscosity,"[1]; 275.15 K, m1 = 0.0502",1.028 ± 0.042 mPa·s
same,viscosity,"[1]; 275.15 K, m1 = 0.0602",1.035 ± 0.042 mPa·s
same,viscosity,"[1]; 275.15 K, m1 = 0.071",1.042 ± 0.042 mPa·s
same,viscosity,"[1]; 275.15 K, m1 = 0.0818",1.05 ± 0.042 mPa·s
same,viscosity,"[1]; 275.15 K, m1 = 0.0902",1.057 ± 0.043 mPa·s
same,viscosity,"[1]; 275.15 K, m1 = 0.1008",1.065 ± 0.043 mPa·s
same,mass density,"[1]; 275.15 K, Pycnometric method, m1 = 0.0102",999.95 ± 0.33 kg/m3
same,mass density,"[1]; 275.15 K, Pycnometric method, m1 = 0.0202",999.95 ± 0.33 kg/m3
same,mass density,"[1]; 275.15 K, Pycnometric method, m1 = 0.0294",999.95 ± 0.33 kg/m3
same,mass density,"[1]; 275.15 K, Pycnometric method, m1 = 0.0459",999.96 ± 0.33 kg/m3
same,mass density,"[1]; 275.15 K, Pycnometric method, m1 = 0.0502",999.96 ± 0.33 kg/m3
same,mass density,"[1]; 275.15 K, Pycnometric method, m1 = 0.0602",999.97 ± 0.33 kg/m3
same,mass density,"[1]; 275.15 K, Pycnometric method, m1 = 0.071",1000 ± 0.33 kg/m3
same,mass density,"[1]; 275.15 K, Pycnometric method, m1 = 0.0818",1000 ± 0.33 kg/m3
same,mass density,"[1]; 275.15 K, Pycnometric method, m1 = 0.0902",1000.01 ± 0.33 kg/m3
same,mass density,"[1]; 275.15 K, Pycnometric method, m1 = 0.1008",1000.03 ± 0.33 kg/m3
same,mass density,"[1]; 283.15 K, Buoyancy - hydrostatic balance with magnetic suspension - one sinker, m1 = 0.0067",999.7 ± 0.23 kg/m3
same,mass density,"[1]; 283.15 K, Buoyancy - hydrostatic balance with magnetic suspension - one sinker, m1 = 0.0191",999.71 ± 0.23 kg/m3
same,mass density,"[1]; 283.15 K, Buoyancy - hydrostatic balance with magnetic suspension - one sinker, m1 = 0.0303",999.71 ± 0.23 kg/m3
same,mass density,"[1]; 283.15 K, Buoyancy - hydrostatic balance with magnetic suspension - one sinker, m1 = 0.0392",999.74 ± 0.23 kg/m3
same,mass density,"[1]; 283.15 K, Buoyancy - hydrostatic balance with magnetic suspension - one sinker, m1 = 0.0492",999.72 ± 0.23 kg/m3
same,mass density,"[1]; 283.15 K, Buoyancy - hydrostatic balance with magnetic suspension - one sinker, m1 = 0.0598",999.72 ± 0.23 kg/m3
same,mass density,"[1]; 283.15 K, Buoyancy - hydrostatic balance with magnetic suspension - one sinker, m1 = 0.0682",999.73 ± 0.23 kg/m3
same,mass density,"[1]; 283.15 K, Buoyancy - hydrostatic balance with magnetic suspension - one sinker, m1 = 0.0799",999.73 ± 0.23 kg/m3
same,mass density,"[1]; 283.15 K, Buoyancy - hydrostatic balance with magnetic suspension - one sinker, m1 = 0.0885",999.73 ± 0.23 kg/m3
same,mass density,"[1]; 283.15 K, Buoyancy - hydrostatic balance with magnetic suspension - one sinker, m1 = 0.0906",999.73 ± 0.23 kg/m3
same,mass density,"[1]; 283.15 K, Buoyancy - hydrostatic balance with magnetic suspension - one sinker, m1 = 0.0996",999.76 ± 0.23 kg/m3
same,mass density,"[1]; 283.15 K, Buoyancy - hydrostatic balance with magnetic suspension - one sinker, m1 = 0.1004",999.78 ± 0.23 kg/m3
same,viscosity,"[1]; 283.15 K, m1 = 0.0067",1.002 ± 0.041 mPa·s
same,viscosity,"[1]; 283.15 K, m1 = 0.0191",1.006 ± 0.041 mPa·s
same,viscosity,"[1]; 283.15 K, m1 = 0.0303",1.01 ± 0.041 mPa·s
same,viscosity,"[1]; 283.15 K, m1 = 0.0392",1.014 ± 0.041 mPa·s
same,viscosity,"[1]; 283.15 K, m1 = 0.0492",1.018 ± 0.041 mPa·s
same,viscosity,"[1]; 283.15 K, m1 = 0.0598",1.022 ± 0.041 mPa·s
same,viscosity,"[1]; 283.15 K, m1 = 0.0682",1.026 ± 0.041 mPa·s
same,viscosity,"[1]; 283.15 K, m1 = 0.0799",1.032 ± 0.042 mPa·s
same,viscosity,"[1]; 283.15 K, m1 = 0.0885",1.036 ± 0.042 mPa·s
same,viscosity,"[1]; 283.15 K, m1 = 0.0906",1.037 ± 0.042 mPa·s
same,viscosity,"[1]; 283.15 K, m1 = 0.0996",1.042 ± 0.042 mPa·s
same,viscosity,"[1]; 283.15 K, m1 = 0.1004",1.043 ± 0.042 mPa·s
O [water] + COCCOCCO,viscosity,"[1]; 275.15 K, m2 = 0",1.674 ± 0.069 mPa·s
same,mass density,[1]; [4],999.94 ± 0.33 kg/m3
same,mass density,[1]; [5],999.7 ± 0.23 kg/m3
same,viscosity,"[1]; 283.15 K, m2 = 0",1.31 ± 0.053 mPa·s
COCCOCCO [2-(2-methoxyethoxy)ethanol],refractive index,[2],1.4245 ± 0.0008
same,mass density,[3],1014.39 ± 1.6 kg/m3

# — the NIST ThermoML archive (doi:10.1016/j.jct.2011.07.008)
